# Source: PMC5908784, “Extracellular loops 2 and 3 of the calcitonin receptor selectively modify agonist binding and efficacy” (Biochemical Pharmacology, 2018)
# Where a chain is given by its changes, count along the chain named. Where a SMILES comes first, the peptide text is derived from it. Bridges are numbered along the chain shown (N, C = ends).
# Legend:
# Assay in all cases: cAMP accumulation
# Assay type in all cases: cell-based
# Conditions in all cases: mean ± S.E.M.; for Emax: cAMP maximal response, SEM; for EC50: cAMP, CV1-FlpIn cells, 30 min, IBMX
# hCTR S364A = target: T1, hCTR S364A (Homo sapiens, UniProt P30988, S364A)
# T1 construct: c-Myc (N); expressed in transfected cells
# T1 sequence (P30988 25-474 S364A): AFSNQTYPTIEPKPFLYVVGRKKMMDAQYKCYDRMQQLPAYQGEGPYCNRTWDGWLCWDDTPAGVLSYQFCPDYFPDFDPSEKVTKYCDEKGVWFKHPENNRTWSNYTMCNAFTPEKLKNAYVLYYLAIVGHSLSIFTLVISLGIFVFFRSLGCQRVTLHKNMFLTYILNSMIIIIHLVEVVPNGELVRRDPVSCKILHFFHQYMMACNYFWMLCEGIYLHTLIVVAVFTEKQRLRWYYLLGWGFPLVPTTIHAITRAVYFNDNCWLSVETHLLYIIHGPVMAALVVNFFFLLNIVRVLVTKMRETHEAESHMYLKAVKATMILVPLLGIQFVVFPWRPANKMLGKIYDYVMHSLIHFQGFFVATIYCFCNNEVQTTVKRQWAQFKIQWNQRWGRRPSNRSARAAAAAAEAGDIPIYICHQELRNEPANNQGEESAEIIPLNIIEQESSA
# Procedure, shortened: (§1)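 Cells expressing the receptor mutant were seeded overnight, then stimulated with increasing ligand concentrations for 30 min in the presence of IBMX. After ethanol extraction and drying at room temperature, cAMP was measured and normalized to the 100 μM forskolin response. EC50 and Emax came from 3-parameter logistic fits.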
# hCTR M367A = target: T2, hCTR M367A (Homo sapiens, UniProt P30988, M367A)
# T2 construct: c-Myc (N); expressed in transfected cells
# T2 sequence (P30988 25-474 M367A): T1 sequence (P30988 25-474 S364A) with A340S, M343A
# Procedure, shortened: as §1
# hCTR L297A = target: T3, hCTR L297A (Homo sapiens, UniProt P30988, L297A)
# T3 construct: c-Myc (N); expressed in transfected cells
# T3 sequence (P30988 25-474 L297A): T1 sequence (P30988 25-474 S364A) with L273A, A340S
# Procedure, shortened: as §1
# hCTR E294A = target: T4, hCTR E294A (Homo sapiens, UniProt P30988, E294A)
# T4 construct: c-Myc (N); expressed in transfected cells
# T4 sequence (P30988 25-474 E294A): T1 sequence (P30988 25-474 S364A) with E270A, A340S
# Procedure, shortened: as §1
# hCTR T295A = target: T5, hCTR T295A (Homo sapiens, UniProt P30988, T295A)
# T5 construct: c-Myc (N); expressed in transfected cells
# T5 sequence (P30988 25-474 T295A): T1 sequence (P30988 25-474 S364A) with T271A, A340S
# Procedure, shortened: as §1
EC50 (hCTR S364A) [nM],EC50 (hCTR M367A) [nM],EC50 (hCTR L297A) [nM],EC50 (hCTR E294A) [nM],EC50 (hCTR T295A) [nM],Structure (SMILES),Emax (hCTR S364A) [%],Emax (hCTR M367A) [%],Emax (hCTR L297A) [%],Emax (hCTR E294A) [%],Emax (hCTR T295A) [%]
,,,,,CC[C@H](C)[C@H](NC(=O)[C@H](C)NC(=O)[C@@H](NC(=O)[C@H](CCC(N)=O)NC(=O)[C@@H]1CCCN1C(=O)[C@H](Cc1ccccc1)NC(=O)[C@@H](NC(=O)[C@H](Cc1c[nH]cn1)NC(=O)[C@H](Cc1ccccc1)NC(=O)[C@H](CCCCN)NC(=O)[C@H](CC(N)=O)NC(=O)[C@H](Cc1ccccc1)NC(=O)[C@H](CC(=O)O)NC(=O)[C@H](CCC(N)=O)NC(=O)[C@@H](NC(=O)[C@H](Cc1ccc(O)cc1)NC(=O)[C@@H](NC(=O)CNC(=O)[C@H](CC(C)C)NC(=O)[C@H](CCSC)NC(=O)[C@@H]1CSSC[C@H](N)C(=O)NCC(=O)N[C@@H](CC(N)=O)C(=O)N[C@@H](CC(C)C)C(=O)N[C@@H](CO)C(=O)N[C@@H]([C@@H](C)O)C(=O)N1)[C@@H](C)O)[C@@H](C)O)[C@@H](C)O)[C@@H](C)O)C(=O)NCC(=O)N[C@H](C(=O)NCC(=O)N[C@@H](C)C(=O)N1CCC[C@H]1C(N)=O)C(C)C [hCT],97 ± 9,82 ± 4,91 ± 6,105 ± 5,127 ± 11
16.6,[…],36.3,49,107,CC(C)C[C@H](NC(=O)CNC(=O)[C@H](C)NC(=O)[C@H](CC(C)C)NC(=O)[C@H](CCCNC(=N)N)NC(=O)[C@H](Cc1cnc[nH]1)NC(=O)[C@@H](NC(=O)[C@@H](NC(=O)[C@@H]1CSSC[C@H](NC(=O)[C@H](C)N)C(=O)N[C@@H](CC(=O)O)C(=O)N[C@@H]([C@@H](C)O)C(=O)N[C@@H](C)C(=O)N[C@@H]([C@@H](C)O)C(=O)N1)C(C)C)[C@@H](C)O)C(=O)N[C@@H](CC(C)C)C(=O)N[C@@H](CO)C(=O)N[C@@H](CCCNC(=N)N)C(=O)N[C@@H](CO)C(=O)NCC(=O)NCC(=O)N[C@H](C(=O)N[C@H](C(=O)N[C@@H](CCCCN)C(=O)N[C@@H](CC(N)=O)C(=O)N[C@@H](CC(N)=O)C(=O)N[C@@H](Cc1ccccc1)C(=O)N[C@H](C(=O)N1CCC[C@H]1C(=O)N[C@H](C(=O)N[C@@H](CC(N)=O)C(=O)N[C@H](C(=O)NCC(=O)N[C@@H](CO)C(=O)N[C@@H](CCCCN)C(=O)N[C@@H](C)C(=O)N[C@@H](Cc1ccccc1)C(N)=O)C(C)C)[C@@H](C)O)C(C)C)C(C)C)C(C)C [hαCGRP],83 ± 10,[…],[…],[…],79 ± 20
0.603,0.0158,0.1 ± 0.002,0.0398,0.282,CSCC[C@H](NC(=O)CNC(=O)[C@H](CO)NC(=O)[C@H](Cc1ccccc1)NC(=O)[C@H](CCCNC(=N)N)NC(=O)[C@H](Cc1c[nH]cn1)NC(=O)[C@H](Cc1ccccc1)NC(=O)[C@H](CC(N)=O)NC(=O)[C@H](CC(N)=O)NC(=O)[C@H](CC(C)C)NC(=O)[C@H](CC(N)=O)NC(=O)[C@H](CCCNC(=N)N)NC(=O)[C@H](Cc1c[nH]c2ccccc12)NC(=O)[C@H](Cc1ccc(O)cc1)NC(=O)[C@H](C)NC(=O)[C@H](CO)NC(=O)[C@H](CC(C)C)NC(=O)[C@@H](NC(=O)[C@@H]1CSSC[C@H](N)C(=O)N[C@@H](CO)C(=O)N[C@@H](CC(N)=O)C(=O)N[C@@H](CC(C)C)C(=O)N[C@@H](CO)C(=O)N[C@@H]([C@@H](C)O)C(=O)N1)C(C)C)C(=O)NCC(=O)N[C@@H](Cc1ccccc1)C(=O)NCC(=O)N1CCC[C@H]1C(=O)N[C@@H](CCC(=O)O)C(=O)N[C@H](C(=O)N1CCC[C@H]1C(N)=O)[C@@H](C)O [pCT] (H-CSNLSTCVLSAYWRNLNNFHRFSGMGFGPETP-NH2; disulfide 1-7),166 ± 16,73 ± 13,127 ± 8,105 ± 6,123 ± 8
,,,,,CC(C)C[C@H](NC(=O)[C@H](CC(N)=O)NC(=O)[C@H](CC(N)=O)NC(=O)[C@H](CO)NC(=O)[C@H](CO)NC(=O)[C@H](CCCNC(=N)N)NC(=O)[C@@H](NC(=O)[C@H](CC(C)C)NC(=O)[C@H](Cc1ccccc1)NC(=O)[C@H](CC(N)=O)NC(=O)[C@H](C)NC(=O)[C@H](CC(C)C)NC(=O)[C@H](CCCNC(=N)N)NC(=O)[C@H](CCC(N)=O)NC(=O)[C@@H](NC(=O)[C@H](C)NC(=O)[C@@H]1CSSC[C@H](NC(=O)[C@@H](N)CCCCN)C(=O)N[C@@H](CC(N)=O)C(=O)N[C@@H]([C@@H](C)O)C(=O)N[C@@H](C)C(=O)N[C@@H]([C@@H](C)O)C(=O)N1)[C@@H](C)O)C(C)C)C(=O)NCC(=O)N1CCC[C@H]1C(=O)N[C@H](C(=O)N[C@@H](CC(C)C)C(=O)N1CCC[C@H]1C(=O)N1CCC[C@H]1C(=O)N[C@H](C(=O)N[C@@H](CC(N)=O)C(=O)N[C@H](C(=O)NCC(=O)N[C@@H](CO)C(=O)N[C@@H](CC(N)=O)C(=O)N[C@H](C(=O)N[C@@H](Cc1ccc(O)cc1)C(N)=O)[C@@H](C)O)C(C)C)[C@@H](C)O)C(C)C [rAmy],56 ± 7,93 ± 8,85 ± 10,90 ± 9,74 ± 19
,,,,,CC(C)C[C@H](NC(=O)[C@H](CCCCN)NC(=O)CNC(=O)[C@H](CC(C)C)NC(=O)[C@@H](NC(=O)[C@@H]1CSSC[C@H](N)C(=O)N[C@@H](CO)C(=O)N[C@@H](CC(N)=O)C(=O)N[C@@H](CC(C)C)C(=O)N[C@@H](CO)C(=O)N[C@@H]([C@@H](C)O)C(=O)N1)C(C)C)C(=O)N[C@@H](CO)C(=O)N[C@@H](CCC(N)=O)C(=O)N[C@@H](CCC(=O)O)C(=O)N[C@@H](CC(C)C)C(=O)N[C@@H](Cc1c[nH]cn1)C(=O)N[C@@H](CCCCN)C(=O)N[C@@H](CC(C)C)C(=O)N[C@@H](CCC(N)=O)C(=O)N[C@H](C(=O)N[C@@H](Cc1ccc(O)cc1)C(=O)N1CCC[C@H]1C(=O)N[C@@H](CCCNC(=N)N)C(=O)N[C@H](C(=O)N[C@@H](CC(N)=O)C(=O)N[C@H](C(=O)NCC(=O)N[C@@H](CO)C(=O)NCC(=O)N[C@H](C(=O)N1CCC[C@H]1C(N)=O)[C@@H](C)O)[C@@H](C)O)[C@@H](C)O)[C@@H](C)O [sCT],102 ± 7,79 ± 3,103 ± 12,98 ± 9,138 ± 13
